Test results reported in the supplement of paper PMC6045584.
± gives the standard deviation of the averaged measurements.

Tests used:
[1] = compound: Cc1nc(Nc2n[nH]c3c2CN(C(=O)N[C@H](CN(C)C)c2ccccc2)C3(C)C)c2sccc2n1; test: surviving fraction relative to DMSO-only wells; higher = less growth inhibition; conditions: exposure time: 5 days
How it was run: (§1)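 Continuous five-day exposure to inhibitors at 0.5, 1, 5, 10, 50, 100, 500 and 1000 nM started 24 hours after log-phase tumour cell lines were seeded at 250–500 cells per well in 384-well plates. Luminescence was read after 10 minutes at room temperature. Viability is given as surviving fraction, meaning CellTiter-Glo luminescence normalised to the median of DMSO-only wells.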

[2] = compound: T1, CO[C@H]1C[C@@H]2CC[C@@H](C)[C@@](O)(O2)C(=O)C(=O)N2CCCC[C@H]2C(=O)O[C@H]([C@H](C)C[C@@H]2CC[C@@H](OCCO)[C@H](OC)C2)CC(=O)[C@H](C)/C=C(\C)[C@@H](O)[C@@H](OC)C(=O)[C@H](C)C[C@H](C)/C=C/C=C/C=C/1C [EVEROLIMUS]; test: as above; conditions: exposure time: 5 days
How it was run: as §1

[3] = compound: T2, CN(Cc1cnc2nc(N)nc(N)c2n1)c1ccc(C(=O)N[C@@H](CCC(=O)O)C(=O)O)cc1 [METHOTREXATE]; test: as above; conditions: exposure time: 5 days
How it was run: as §1

[4] = compound: T3, COc1cc(CCc2cc(NC(=O)c3ccc(N4CC(C)NC(C)C4)cc3)n[nH]2)cc(OC)c1 [AZD4547]; test: as above; conditions: exposure time: 5 days
How it was run: as §1

[5] = compound: O=C(O)CC[C@H]1CC[C@@](c2cc(F)ccc2F)(S(=O)(=O)c2ccc(Cl)cc2)CC1 [MK0752]; test: as above; conditions: exposure time: 5 days
How it was run: as §1

[6] = compound: T4, CCCS(=O)(=O)Nc1ccc(F)c(C(=O)c2c[nH]c3ncc(Cl)cc23)c1F [PLX-4720]; test: as above; conditions: exposure time: 5 days
How it was run: as §1

[7] = compound: T5, CCN(CC)CCNC(=O)c1c(C)[nH]c(/C=C2\C(=O)Nc3ccc(F)cc32)c1C [SUNITINIB]; test: as above; conditions: exposure time: 5 days
How it was run: as §1

[8] = compound: T6, COc1cc([C@@H]2c3cc4c(cc3[C@@H](O[C@@H]3O[C@@H]5CO[C@@H](C)O[C@H]5[C@H](O)[C@H]3O)[C@H]3COC(=O)[C@H]23)OCO4)cc(OC)c1O [ETOPOSIDE]; test: as above; conditions: exposure time: 5 days
How it was run: as §1

[9] = compound: T7, NC1(c2ccc(-c3nc4ccn5c(=O)[nH]nc5c4cc3-c3ccccc3)cc2)CCC1 [MK2206]; test: as above; conditions: exposure time: 5 days
How it was run: as §1

[10] = compound: T8, C#Cc1cccc(Nc2ncnc3cc(OCCOC)c(OCCOC)cc23)c1 [ERLOTINIB]; test: as above; conditions: exposure time: 5 days
How it was run: as §1

[11] = compound: O=C(NOCC1CC1)c1ccc(F)c(F)c1Nc1ccc(I)cc1Cl; test: as above; conditions: exposure time: 5 days
How it was run: as §1

[12] = compound: T9, CCC1=C[C@@H]2CN(C1)Cc1c([nH]c3ccccc13)[C@@](C(=O)OC)(c1cc3c(cc1OC)N(C)[C@H]1[C@@](O)(C(=O)OC)[C@H](OC(C)=O)[C@]4(CC)C=CCN5CC[C@]31[C@@H]54)C2 [VINORELBINE]; test: as above; conditions: exposure time: 5 days
How it was run: as §1

[13] = compound: Cc1nc(Nc2n[nH]c3c2CN(C(=O)N[C@H](CN(C)C)c2ccccc2)C3(C)C)c2sccc2n1; test: area under dose-response curve of surviving fraction (unscaled, Aref=0) (surviving fraction x log10(nM)); higher = more resistant; conditions: exposure time: 5 days; dose range 0.5-1000 nM
How it was run: (§2)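 Surviving fractions were fitted by 3-parameter logistic regression in the drc R package to give dose-response survival curves. They came from tumour cell lines treated for five days with eight inhibitor concentrations from 0.5 to 1000 nM and read by CellTiter-Glo luminescence against DMSO-only wells. The area under the curve is the unscaled activity area. It was calculated over log10 dose with Aref = 0.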

[14] = compound: T1, EVEROLIMUS; test: as above; conditions: exposure time: 5 days; dose range 0.5-1000 nM
How it was run: as §2

[15] = compound: T2, METHOTREXATE; test: as above; conditions: exposure time: 5 days; dose range 0.5-1000 nM
How it was run: as §2

[16] = compound: T3, AZD4547; test: as above; conditions: exposure time: 5 days; dose range 0.5-1000 nM
How it was run: as §2

[17] = compound: T4, PLX-4720; test: as above; conditions: exposure time: 5 days; dose range 0.5-1000 nM
How it was run: as §2

[18] = compound: T5, SUNITINIB; test: as above; conditions: exposure time: 5 days; dose range 0.5-1000 nM
How it was run: as §2

[19] = compound: T6, ETOPOSIDE; test: as above; conditions: exposure time: 5 days; dose range 0.5-1000 nM
How it was run: as §2

[20] = compound: T7, MK2206; test: as above; conditions: exposure time: 5 days; dose range 0.5-1000 nM
How it was run: as §2

[21] = compound: T8, ERLOTINIB; test: as above; conditions: exposure time: 5 days; dose range 0.5-1000 nM
How it was run: as §2

[22] = compound: O=C(NOCC1CC1)c1ccc(F)c(F)c1Nc1ccc(I)cc1Cl; test: as above; conditions: exposure time: 5 days; dose range 0.5-1000 nM
How it was run: as §2

[23] = compound: Nc1ccn([C@@H]2O[C@H](CO)[C@@H](O)C2(F)F)c(=O)n1 [GEMCITABINE]; test: as above; conditions: exposure time: 5 days; dose range 0.5-1000 nM
How it was run: as §2

[24] = compound: T9, VINORELBINE; test: as above; conditions: exposure time: 5 days; dose range 0.5-1000 nM
How it was run: as §2

## HS57T BREAST
[1]; 0.5 nM
  surviving fraction: 0.895 ± 0.062
[1]; 1 nM
  surviving fraction: 0.685 ± 0.022
[1]; 5 nM
  surviving fraction: 0.366 ± 0.02
[1]; 10 nM
  surviving fraction: 0.305 ± 0.019
[1]; 50 nM
  surviving fraction: 0.287 ± 0.018
[1]; 100 nM
  surviving fraction: 0.255 ± 0.0075
[1]; 500 nM
  surviving fraction: 0.151 ± 0.02
[1]; 1000 nM
  surviving fraction: 0.0643 ± 0.0085
[2]; 0.5 nM
  surviving fraction: 0.614 ± 0.029
[2]; 1 nM
  surviving fraction: 0.535 ± 0.0078
[2]; 5 nM
  surviving fraction: 0.497 ± 0.031
[2]; 10 nM
  surviving fraction: 0.445 ± 0.016
[2]; 50 nM
  surviving fraction: 0.447 ± 0.024
[2]; 100 nM
  surviving fraction: 0.44 ± 0.042
[2]; 500 nM
  surviving fraction: 0.373 ± 0.024
[2]; 1000 nM
  surviving fraction: 0.387 ± 0.045
[3]; 0.5 nM
  surviving fraction: 1 ± 0.11
[3]; 1 nM
  surviving fraction: 1.03 ± 0.075
[3]; 5 nM
  surviving fraction: 1.03 ± 0.032
[3]; 10 nM
  surviving fraction: 0.985 ± 0.12
[3]; 50 nM
  surviving fraction: 0.252 ± 0.025
[3]; 100 nM
  surviving fraction: 0.226 ± 0.013
[3]; 500 nM
  surviving fraction: 0.205 ± 0.018
[3]; 1000 nM
  surviving fraction: 0.214 ± 0.0081
[4]; 0.5 nM
  surviving fraction: 1.02 ± 0.051
[4]; 1 nM
  surviving fraction: 1.01 ± 0.031
[4]; 5 nM
  surviving fraction: 0.938 ± 0.04
[4]; 10 nM
  surviving fraction: 0.829 ± 0.05
[4]; 50 nM
  surviving fraction: 0.687 ± 0.029
[4]; 100 nM
  surviving fraction: 0.744 ± 0.043
[4]; 500 nM
  surviving fraction: 0.679 ± 0.035
[4]; 1000 nM
  surviving fraction: 0.628 ± 0.045
[5]; 0.5 nM
  surviving fraction: 1.09 ± 0.048
[5]; 1 nM
  surviving fraction: 1.09 ± 0.059
[5]; 5 nM
  surviving fraction: 1.18 ± 0.061
[5]; 10 nM
  surviving fraction: 1.14 ± 0.1
[5]; 50 nM
  surviving fraction: 1.13 ± 0.048
[5]; 100 nM
  surviving fraction: 1.19 ± 0.077
[5]; 500 nM
  surviving fraction: 1.02 ± 0.038
[5]; 1000 nM
  surviving fraction: 1.01 ± 0.046
[6]; 0.5 nM
  surviving fraction: 0.9 ± 0.06
[6]; 1 nM
  surviving fraction: 0.898 ± 0.057
[6]; 5 nM
  surviving fraction: 0.947 ± 0.069
[6]; 10 nM
  surviving fraction: 0.964 ± 0.065
[6]; 50 nM
  surviving fraction: 0.921 ± 0.059
[6]; 100 nM
  surviving fraction: 0.982 ± 0.03
[6]; 500 nM
  surviving fraction: 0.92 ± 0.019
[6]; 1000 nM
  surviving fraction: 0.962 ± 0.054
[7]; 0.5 nM
  surviving fraction: 0.9 ± 0.077
[7]; 1 nM
  surviving fraction: 0.867 ± 0.027
[7]; 10 nM
  surviving fraction: 0.919 ± 0.095
[7]; 100 nM
  surviving fraction: 0.863 ± 0.011
[7]; 500 nM
  surviving fraction: 0.572 ± 0.035
[7]; 1000 nM
  surviving fraction: 0.406 ± 0.027
[8]; 0.5 nM
  surviving fraction: 1.02 ± 0.016
[8]; 1 nM
  surviving fraction: 0.967 ± 0.049
[8]; 5 nM
  surviving fraction: 1.01 ± 0.02
[8]; 10 nM
  surviving fraction: 1.06 ± 0.069
[8]; 50 nM
  surviving fraction: 1.09 ± 0.055
[8]; 100 nM
  surviving fraction: 0.909 ± 0.06
[8]; 500 nM
  surviving fraction: 0.409 ± 0.048
[8]; 1000 nM
  surviving fraction: 0.288 ± 0.017
[9]; 0.5 nM
  surviving fraction: 0.979 ± 0.037
[9]; 1 nM
  surviving fraction: 1 ± 0.07
[9]; 5 nM
  surviving fraction: 1.02 ± 0.051
[9]; 10 nM
  surviving fraction: 1.07 ± 0.056
[9]; 50 nM
  surviving fraction: 0.962 ± 0.013
[9]; 100 nM
  surviving fraction: 0.938 ± 0.05
[9]; 500 nM
  surviving fraction: 0.747 ± 0.012
[9]; 1000 nM
  surviving fraction: 0.658 ± 0.092
[10]; 0.5 nM
  surviving fraction: 1.03 ± 0.086
[10]; 1 nM
  surviving fraction: 1.02 ± 0.071
[10]; 5 nM
  surviving fraction: 1.06 ± 0.046
[10]; 10 nM
  surviving fraction: 1.1 ± 0.052
[10]; 100 nM
  surviving fraction: 1.04 ± 0.074
[10]; 500 nM
  surviving fraction: 0.999 ± 0.046
[10]; 1000 nM
  surviving fraction: 0.971 ± 0.074
[11]; 0.5 nM
  surviving fraction: 0.909 ± 0.02
[11]; 1 nM
  surviving fraction: 0.945 ± 0.022
[11]; 5 nM
  surviving fraction: 0.933 ± 0.056
[11]; 10 nM
  surviving fraction: 0.965 ± 0.033
[11]; 50 nM
  surviving fraction: 0.824 ± 0.025
[11]; 100 nM
  surviving fraction: 0.815 ± 0.013
[11]; 500 nM
  surviving fraction: 0.676 ± 0.021
[11]; 1000 nM
  surviving fraction: 0.686 ± 0.019
[12]; 0.5 nM
  surviving fraction: 1.01 ± 0.08
[12]; 1 nM
  surviving fraction: 0.957 ± 0.03
[12]; 5 nM
  surviving fraction: 0.682 ± 0.0066
[12]; 10 nM
  surviving fraction: 0.118 ± 0.011
[12]; 50 nM
  surviving fraction: 0.07 ± 0.002
[12]; 100 nM
  surviving fraction: 0.0703 ± 0.013
[12]; 500 nM
  surviving fraction: 0.0633 ± 0.0096
[12]; 1000 nM
  surviving fraction: 0.0723 ± 0.0084

## HS57T LUNG
[13]
  area under dose-response curve: 1.13
[14]
  area under dose-response curve: 1.54
[15]
  area under dose-response curve: 2.04
[16]
  area under dose-response curve: 2.66
[17]
  area under dose-response curve: 3.1
[18]
  area under dose-response curve: 2.84
[19]
  area under dose-response curve: 2.88
[20]
  area under dose-response curve: 3.09
[21]
  area under dose-response curve: 3.44
[22]
  area under dose-response curve: 2.83
[23]
  area under dose-response curve: 1.27
[24]
  area under dose-response curve: 1.21
